Data as given in US20250215029A1 (Recludix Pharma, Inc., priority 2022, published 2025).
pIC50: −log10 of the molar value. Like-named read-outs stand apart in the source and are kept apart here.

Key:
[1] = biological target: T1, pY705-STAT3 in PBMC (Homo sapiens, UniProt P40763); test: MSD-pSTAT-PBMC Assay (pSTAT3, IL-6 stimulated); assay type: cell-based; details: PBMC, compound 3 hrs, then 10 ng/mL IL-6 for 10 min
T1 construct: Cryopreserved Peripheral Blood Mononuclear Cells (PBMC) are from AllCells; host or cells: cryopreserved PBMC
T1 sequence (P40763 whole entry): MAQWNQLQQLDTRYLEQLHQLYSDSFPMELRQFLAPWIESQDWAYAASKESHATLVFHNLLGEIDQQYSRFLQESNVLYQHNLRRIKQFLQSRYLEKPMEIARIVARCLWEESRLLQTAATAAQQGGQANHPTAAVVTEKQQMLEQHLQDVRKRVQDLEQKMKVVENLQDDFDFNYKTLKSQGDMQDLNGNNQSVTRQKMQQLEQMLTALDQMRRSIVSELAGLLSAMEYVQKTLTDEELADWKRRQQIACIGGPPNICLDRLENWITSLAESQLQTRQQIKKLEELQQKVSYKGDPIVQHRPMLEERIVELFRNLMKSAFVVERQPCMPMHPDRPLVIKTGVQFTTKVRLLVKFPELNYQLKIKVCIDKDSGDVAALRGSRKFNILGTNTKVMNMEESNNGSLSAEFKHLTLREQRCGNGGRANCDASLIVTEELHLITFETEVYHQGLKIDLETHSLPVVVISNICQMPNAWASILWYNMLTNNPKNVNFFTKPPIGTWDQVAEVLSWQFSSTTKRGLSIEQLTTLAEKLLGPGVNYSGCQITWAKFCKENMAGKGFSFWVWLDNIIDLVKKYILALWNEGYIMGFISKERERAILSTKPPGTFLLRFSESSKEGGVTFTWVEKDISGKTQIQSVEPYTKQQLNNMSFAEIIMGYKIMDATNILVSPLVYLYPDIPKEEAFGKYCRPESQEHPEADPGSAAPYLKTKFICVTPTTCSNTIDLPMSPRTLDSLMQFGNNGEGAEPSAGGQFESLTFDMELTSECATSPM
How it was run: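 Human PBMCs were pretreated with compound for 3 h, then stimulated with 10 ng/mL IL-6 for 10 min. Lysate pY705-STAT3 was measured by MSD sandwich immunoassay (anti-STAT3 capture) and corrected for unstimulated background. Signal was normalized to DMSO, and IC50 came from variable-slope regression.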

[2] = biological target: T2, pY641-STAT6 in PBMC (Homo sapiens, UniProt P42226); test: MSD-pSTAT-PBMC Assay (pSTAT6, IL-4 stimulated); assay type: cell-based; details: compound 3 hrs, then 1 ng/mL IL-4 for 10 min
T2 construct: Cryopreserved Peripheral Blood Mononuclear Cells (PBMC) are from AllCells; host or cells: cryopreserved PBMC
T2 sequence (P42226 1-847): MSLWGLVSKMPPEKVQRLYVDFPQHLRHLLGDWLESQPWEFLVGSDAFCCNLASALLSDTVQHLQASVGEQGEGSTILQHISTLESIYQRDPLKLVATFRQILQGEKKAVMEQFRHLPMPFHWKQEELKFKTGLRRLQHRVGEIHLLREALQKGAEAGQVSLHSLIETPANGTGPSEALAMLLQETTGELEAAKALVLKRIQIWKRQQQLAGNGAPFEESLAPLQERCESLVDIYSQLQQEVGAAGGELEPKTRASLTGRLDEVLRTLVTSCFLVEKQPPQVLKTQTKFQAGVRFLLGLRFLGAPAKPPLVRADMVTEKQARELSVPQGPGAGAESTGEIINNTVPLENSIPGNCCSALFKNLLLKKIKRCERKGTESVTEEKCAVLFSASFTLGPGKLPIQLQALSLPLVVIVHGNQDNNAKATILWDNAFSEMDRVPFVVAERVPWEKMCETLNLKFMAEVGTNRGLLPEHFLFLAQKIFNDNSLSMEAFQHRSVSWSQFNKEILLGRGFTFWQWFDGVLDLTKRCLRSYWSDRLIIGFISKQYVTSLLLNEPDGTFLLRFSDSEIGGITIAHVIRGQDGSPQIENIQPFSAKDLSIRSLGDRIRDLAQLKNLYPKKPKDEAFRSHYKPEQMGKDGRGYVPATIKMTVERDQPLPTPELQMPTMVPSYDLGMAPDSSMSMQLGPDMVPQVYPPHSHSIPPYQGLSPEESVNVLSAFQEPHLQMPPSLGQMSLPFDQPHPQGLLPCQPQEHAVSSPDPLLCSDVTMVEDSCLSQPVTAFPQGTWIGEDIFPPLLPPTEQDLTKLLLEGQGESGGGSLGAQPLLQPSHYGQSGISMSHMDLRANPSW
How it was run: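 Thawed human PBMC rested overnight in IMDM/10% FBS, then got compound for 3 hrs before a 10 min cytokine pulse: 1 ng/mL IL-4 for pSTAT6, 10 ng/mL IL-6 for pSTAT3. Lysates went to MSD sandwich capture on total STAT6 or STAT3 with phospho-specific detection. IC50 came from background-subtracted, DMSO-normalized signal.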

[3] = PBMC, Table 1114, read-out: pSTAT6
[4] = PBMC, Table 115, read-out: STAT6

CC(C)(C)C(=O)SCCOP(=O)(OCCSC(=O)C(C)(C)C)C(F)(F)c1ccc2sc(C(=O)N[C@H]3CCCC[C@H]4CC[C@@H](C(=O)N5C[C@@H](C#N)[C@H](c6cc[nH]c(=O)c6)C5)N4C3=O)cc2c1 (relative stereo) [Compound 157, S,S′-(((((2-(((3S,6S,10aS)-3-(rel-(trans)-3-cyano-4-(2-oxo-1,2-dihydropyridin-4-yl)pyrrolidine-1-carbonyl)-5-oxodecahydro-pyrrolo[1,2-a]azocin-6-yl)carbamoyl)benzo [b]thiophen-5-yl)difluoromethyl)phosphoryl)bis(oxy))bis(ethane-2,1-diyl)) bis(2,2-dimethylpropane-thioate)]
pIC50 ([1]; Table 1114, read-out: pSTAT3): 6.00 to 7.00
pIC50 [2, 3]: 6.00 to 7.00

CC(C)(C)C(=O)OCOP(=O)(OCOC(=O)C(C)(C)C)C(F)(F)c1ccc2sc(C(=O)N[C@H]3CCCC[C@H]4CC[C@@H](C(=O)N5C[C@H](c6ccccc6)[C@@H](C#N)C5)N4C3=O)cc2c1 (relative stereo) [Compound 190, ((((2-(((3S,6S,10aS)-3-(rel- trans)-3-cyano-4-phenyl-pyrrolidine-1-carbonyl)-5-oxodecahydro-pyrrolo[1,2-a]azocin-6-yl)carbamoyl)benzo[b]thiophen-5-yl)difluoro-methyl)phos-phoryl)bis(oxy)) bis(methylene) bis(2,2-dimethyl-propanoate)]
pIC50 ([1]; Table 1114, read-out: pSTAT3): > 7.00
pIC50 [2, 3]: > 7.00

CC(C)(C)C(=O)OCOP(=O)(OCOC(=O)C(C)(C)C)C(F)(F)c1ccc2ccc(C(=O)N[C@H]3CCCC[C@H]4CC[C@@H](C(=O)N5C[C@H](c6ccccc6)[C@@H](C#N)C5)N4C3=O)cc2c1 (relative stereo) [Compound 194, ((((7-(((3S,6S,10aS)-3-(rel-(trans)-3-cyano-4-phenyl-pyrrolidine-1-carbonyl)-5-oxodecahydro-pyrrolo[1,2-a]azocin-6-yl)carbamoyl)naphthalen-2-yl)difluoro-methyl)phos-phoryl)bis(oxy)) bis(methylene) bis(2,2-dimethyl-propanoate)]
pIC50 ([1]; Table 1114, read-out: pSTAT3): 6.00 to 7.00
pIC50 [2, 3]: > 7.00

CCCOC(=O)[C@H](C)NP(=O)(Oc1ccccc1)C(F)c1ccc2sc(C(=O)N[C@H]3CCCC[C@H]4CC[C@@H](C(=O)N5C[C@@H](c6ccccc6)[C@H](C#N)C56CC6)N4C3=O)cc2c1 (relative stereo) [Compound 325, propyl (((2-(((3S,6S,10aS)-3-((rel-trans)-7-cyano-6-phenyl-4-azaspiro[2.4]heptane-4-carbonyl)-5-oxodecahydropyrrolo [1,2-a]azocin-6-yl)carbamoyl)benzo [b]thiophen-5-yl)fluoromethyl) (phenoxy)phosphoryl)-L-alaninate]
pIC50 ([1]; Table 115, read-out: STAT3): < 5.52
pIC50 [2, 4]: > 7.00

CCCOC(=O)[C@H](C)NP(=O)(Oc1ccccc1)[C@@H](F)c1ccc2sc(C(=O)N[C@H]3CCCC[C@H]4CC[C@@H](C(=O)N5C[C@H](c6cccc(F)c6)C(C#N)C56CC6)N4C3=O)cc2c1 (relative stereo) [Compound 337, propyl (((R)-(2-(((3S,6S,10aS)-3-((rel-trans)-7-cyano-6-(3-fluorophenyl)-4-azaspiro[2.4]heptane-4-carbonyl)-5-oxodecahydropyrrolo [1,2-a]azocin-6-yl)carbamoyl)benzo [b]thiophen-5-yl)fluoromethyl) (phenoxy)phosphoryl)-L-alaninate]
pIC50 ([1]; Table 115, read-out: STAT3): < 5.52
pIC50 ([2]; STAT6, PBMC, Table 115): > 7.00

CC(C)CC(=O)SCCOP(=O)(OCCSC(=O)CC(C)C)C(F)(F)c1ccc2ccc(C(=O)N[C@H]3CCCC[C@H]4CC[C@@H](C(=O)N5CC(n6ccnn6)[C@H](O)C5)N4C3=O)cc2c1 (relative stereo) [Compound 1086, S,S′-((((difluoro(7-(((3S,6S,10aS)-3-((rel-trans)-3-hydroxy-4-(1H-1,2,3-triazol-1-yl)pyrrolidine-1-carbonyl)-5-oxodecahydro-pyrrolo [1,2-a]azocin-6-yl)carbamoyl)naphthalen-2-yl)methyl)phosphoryl)bis(oxy))bis(ethane-2,1-diyl)) bis(3-methylbutanethioate)]
pIC50 ([1]; Table 115, read-out: STAT3): > 7.00
pIC50 [2, 4]: 6.00 to 7.00

CCCC(=O)SCCOP(=O)(Cc1ccc2sc(C(=O)N[C@H]3CCCC[C@H]4CC[C@@H](C(=O)N5CC(C#N)C(c6ccccc6)C5)N4C3=O)cc2c1)OCCSC(=O)CCC (single isomer, unassigned) [Compound 125, S,S′-(((((2-(((3S,6S,10aS)-3-((3S,4R or 3R,4S)-3-cyano-4-phenylpyrrolidine-1-carbonyl)-5-oxodecahydropyrrolo[1,2-a]azocin-6-yl)carbamoyl)benzo[b]thiophen-5-yl)methyl)phosphoryl)bis(oxy))bis(ethane-2,1-diyl))dibutanethioate]
pIC50 ([1]; Table 1114, read-out: pSTAT3): < 5.52
pIC50 [2, 3]: 5.52 to 6.00

CC(C)(C)C(=O)SCCOP(=O)(OCCSC(=O)C(C)(C)C)C(F)(F)c1ccc2sc(C(=O)N[C@H]3CCCC[C@H]4CC[C@@H](C(=O)N5C[C@@H](C#N)[C@H](c6ccccc6)C5)N4C3=O)cc2c1 (single isomer, unassigned) [Compound 127, S,S′-(((((2-(((3S,6S,10aS)-3-((3S,4R or 3R,4S)-3-cyano-4-phenylpyrrolidine-1-carbonyl)-5-oxodecahydro-pyrrolo[1,2-a]azocin-6-yl)carbamoyl)benzo[b]thiophen-5-yl)difluoromethyl)phosphoryl)bis(oxy))bis(ethane-2,1-diyl))bis(2,2-dimethylpropane-thioate]
pIC50 ([1]; Table 1114, read-out: pSTAT3): 5.52 to 6.00
pIC50 [2, 3]: 6.00 to 7.00

CCCC(=O)SCCOP(=O)(Oc1ccccc1)C(F)(F)c1ccc2sc(C(=O)N[C@H]3CCCC[C@H]4CC[C@@H](C(=O)N5C[C@H](c6ccccc6)[C@@H](C#N)C5)N4C3=O)cc2c1 (single isomer, unassigned) [Compound 128, S-(2-((((2-(((3S,6S,10aS)-3-((3R,4S or 3S,4R)-3-cyano-4-phenylpyrrolidine-1-carbonyl)-5-oxodecahydro-pyrrolo[1,2-a]azocin-6-yl)carbamoyl)benzo[b]thiophen-5-yl)difluoromethyl) (phenoxy)phosphoryl)oxy)ethyl) butanethioate]
pIC50 ([1]; Table 1114, read-out: pSTAT3): < 5.52
pIC50 ([2]; pSTAT6, PBMC, Table 1114): 6.00 to 7.00

CC(C)(C)C(=O)SCCOP(=O)(OCCSC(=O)C(C)(C)C)C(F)(F)c1ccc2sc(C(=O)N[C@H]3C[C@@H](O)CC[C@H]4CC[C@@H](C(=O)N5C[C@@H](C#N)[C@H](c6ccccc6)C5)N4C3=O)cc2c1 (single isomer, unassigned) [Compound 129, S,S′-(((((2-(((3S,6S,8S,10aR)-3-((3S,4R or 3R,4S)-3-cyano-4-phenylpyrrolidine-1-carbonyl)-8-hydroxy-5-oxodecahydro-pyrrolo[1,2-a]azocin-6-yl)carbamoyl)benzo [b]thiophen-5-yl)difluoromethyl)phosphoryl)bis(oxy))bis(ethane-2,1-diyl)) bis(2,2-dimethylpropane-thioate]
pIC50 ([1]; Table 1114, read-out: pSTAT3): < 5.52
pIC50 [2, 3]: 6.00 to 7.00

CC(C)(C)C(=O)SCCOP(=O)(Oc1ccccc1)C(F)(F)c1ccc2sc(C(=O)N[C@H]3CCCC[C@H]4CC[C@@H](C(=O)N5C[C@H](c6ccccc6)[C@@H](C#N)C5)N4C3=O)cc2c1 (single isomer, unassigned) [Compound 133, S-(2-((((2-(((3S,6S,10aS)-3-((3S,4R or 3R,4S)-3-cyano-4-phenylpyrrolidine-1-carbonyl)-5-oxodecahydro-pyrrolo[1,2-a]azocin-6-yl)carbamoyl)benzo[b]thiophen-5-yl)difluoromethyl) (phenoxy)phosphoryl)oxy)ethyl)-2,2-dimethylpropane-thioate]
pIC50 ([1]; Table 1114, read-out: pSTAT3): < 5.52
pIC50 ([2]; pSTAT6, PBMC, Table 1114): 6.00 to 7.00
